Data: patent US10766899B2, “Methods for preparing substituted imidazo[4,5-b]pyrazines” (Cytokinetics, Inc., priority 2006, dated 2020)

Tested on: SKM MF
Assay: SKM MF AC1.4: ATPase of skeletal sarcomeric proteins (actin, tropomyosin, troponin complex, myosin), PK/LDH coupled enzyme system
Assay type: biochemical
Settings: screen at pCa=6.5, † mean value, ‡ median value
Protocol: For example, test compounds can be assayed in a highly parallel fashion by using multiwell plates by placing the compounds either individually in wells or testing them in mixtures. Assay components including the target protein complex, coupling enzymes and substrates, and ATP can then be added to the wells and the absorbance or fluorescence of each well of the plate can be measured with a plate reader.
In some embodiments, the method uses a 384 well plate format and a 25 μL reaction volume. A pyruvate kinase/lactate dehydrogenase coupled enzyme system (Huang T G and Hackney D D. (1994) J Biol Chem 269(23):16493-501) can be used to measure the rate of ATP hydrolysis in each well. As will be appreciated by those in the art, the assay components are added in buffers and reagents. The incubation periods can be optimized to give adequate detection signals over the background. The assay can be done in real time giving the kinetics of ATP hydrolysis which increases the signal to noise ratio of the assay.
Actin was purified by first preparing an ether powder of cardiac muscle (Zot H G and Potter J D. (1981) Preparative Biochemistry 11:381-395) as described below. Subsequently, actin was cycled between the filamentous and soluble state through rounds of centrifugation and dialysis (Spudich J A and Watt S. (1971) J. Biol. Chem. 246:4866-4871). It was stored in the filamentous state at 4° C.
Tropomyosin was extracted from the ether powder and separated from the other proteins based on pH dependent precipitations followed by successive ammonium sulfate cuts at 53% and 65% (Smillie L B. (1981) Methods Enzymol 85 Pt B:234-41). The troponins were isolated as an intact complex of TnC, TnT, and TnI. Ether powder is extracted in a high salt buffer. Successive ammonium sulfate cuts of 30% and 45% were done; the precipitate was solubilized by dialysis into a low salt buffer and then further purified on a DEAE Toyopearl column with a 25-350 mM KCl gradient.
Just prior to screening, the actin, tropomyosin, and troponin complex are mixed together in the desired ratio (e.g., 7:1:1) to achieve maximal calcium regulation of the actin filament. The screen is conducted at a pCa=6.5. This calcium concentration is in the physiological range during muscle contraction.
To measure the generation of ADP during the reaction, a pyruvate kinase/lactate dehydrogenase/NADH coupled enzyme system (PK/LDH) is added to the actin. The myosin is kept separately. The plates are read in real time so that kinetic curves are obtained. These compounds are in DMSO and were already spotted onto the bottoms of 384 well plates at 10 to 40 μg/ml final concentration.
• 1. Obtain ˜1000 g skeletal muscle, such as rabbit skeletal muscle. • 2. Grind twice; extract with 2 L solution A for 15 min while stirring; add 4 L cold H2O, filter through gauze; dilute with cold H2O to ionic strength of 0.04, (about 10-fold); let settle for 3 h; collect precipitate at 7,000 rpm in GSA rotor for 15 min. • 3. Disperse pellet in 220 ml solution B; dialyze overnight against 6 L solution C; slowly add ˜400 ml equal volume cold distilled H2O; stir for 30 min; centrifuge at 10,000 rpm for 10 min in GSA rotor. • 4. Centrifuge supernatant at 19,000 rpm for 1 h. • 5. Dilute supernatant to ionic strength of 0.04 (˜8-fold); let myosin settle overnight; collect about 5-6 L fluffy myosin precipitate by centrifuging at 10,000 rpm for 10 min in GSA rotor. • 6. Resuspend pellet in minimal volume of solution G; dialyze overnight against 2 L solution D; centrifuge at 19,000 rpm for 2 h, in cellulose nitrate tubes; puncture tubes and separate myosin from fat and insoluble pellet. • 7. Dilute supernatant to 5-10 mg/ml and dialyze against solution E extensively, load onto DEAE-sephadex column. • 8. […]

Row | Compound | SKM MF AC1.4 | also measured
1 | CCC(CC)n1c(O)nc2ncc(SC)nc21 [6-(methylthio)-1-(pentan-3-yl)-1H-imidazo[4,5-b]pyrazin-2-ol] | 0.4 µM | –
2 | CCC(CNC)n1c(O)nc2ncc(Br)nc21 (stereo not drawn) [6-bromo-1-(1-(methylamino)butan-2-yl)-1H-imidazo[4,5-b]pyrazin-2-ol] | 45.7 µM | –
3 | CC[C@H](CO)n1c(O)nc2ncc(Br)nc21 [(R)-6-bromo-1-(1-hydroxybutan-2-yl)-1H-imidazo[4,5-b]pyrazin-2-ol] | 1.1 µM | –
4 | CCC(CC)n1c(O)nc2ncc(Cl)nc21 [6-chloro-1-(ethylpropyl)imidazo[4,5-b]pyrazin-2-ol] | 0.7 µM | –
5 | C[C@@H](c1ccccc1)n1c(O)nc2ncc(C3=CCCCC3)nc21 [(S)-6-cyclohexenyl-1-(1-phenylethyl)-1H-imidazo[4,5-b]pyrazin-2-ol] | 31.0 µM | –
6 | 6-ethyl-1-(ethylpropyl)imidazo[4,5-b]pyrazin-2-ol | 8.58 µM | –
7 | CCC(CC)n1c(O)nc2ncc(OC)nc21 [6-methoxy-1-(pentan-3-yl)-1H-imidazo[4,5-b]pyrazin-2-ol] | 2.2^‡ μM | SKM MF AC1.4 (listed as 1-(ethylpropyl)-6-methoxyimidazo[4,5-b]pyrazin-2-ol): 2.20 µM; SKM MF AC1.4 (listed as 6-methoxy-1-(pentan-3-yl)-1H-imidazo[4,5-b]pyrazin-2(3H)-one): 2.2^‡ μM
8 | CCC(CC)n1c(O)nc2ncc(C)nc21 [6-methyl-1-(pentan-3-yl)-1H-imidazo[4,5-b]pyrazin-2-ol] | 0.53 µM | –
9 | CC(C)C[C@H](CN1CCOCC1)n1c(O)nc2ncc(Br)nc21 [1-[(1R)-3-methyl-1-(morpholin-4-ylmethyl)butyl]-6-bromoimidazo[4,5-b]pyrazin-2-ol] | 0.5 µM | –
10 | CC(C)=Cc1cnc2nc(O)n([C@@H](C)c3ccccc3)c2n1 [(S)-6-(2-methylprop-1-enyl)-1-(1-phenylethyl)-1H-imidazo[4,5-b]pyrazin-2-ol] | 2.7 µM | –
11 | CCC(C(=O)N1CCOCC1)n1c(O)nc2ncc(Br)nc21 (stereo not drawn) [2-(6-bromo-2-hydroxy-1H-imidazo[4,5-b]pyrazin-1-yl)-1-morpholinobutan-1-one] | >49 µM | –
12 | CCOc1cnc2nc(O)n([C@@H](C)c3ccccc3)c2n1 [(S)-6-ethoxy-1-(1-phenylethyl)-1H-imidazo[4,5-b]pyrazin-2-ol] | 10.6 µM | –
13 | 6-bromo-1-(propylbutyl)imidazo[4,5-b]pyrazin-2-ol | 0.7 µM | –
14 | CCC/C=C\Cc1cnc2nc(O)n([C@@H](C)c3ccccc3)c2n1 [(S,Z)-6-(hex-2-enyl)-1-(1-phenylethyl)-1H-imidazo[4,5-b]pyrazin-2-ol] | 3.1 µM | –
15 | CCC(CC)n1c(O)nc2ncc(O)nc21 [1-(pentan-3-yl)-1H-imidazo[4,5-b]pyrazine-2,6-diol] | >49 µM | –
16 | C/C=C/c1cnc2nc(O)n(C3CCCCC3)c2n1 [(E)-1-cyclohexyl-6-(prop-1-enyl)-1H-imidazo[4,5-b]pyrazin-2-ol] | 6.1 µM | –
17 | CC(C)n1c(O)nc2ncc(Br)nc21 [6-bromo-1-isopropyl-1H-imidazo[4,5-b]pyrazin-2-ol] | 6.0 µM | –
18 | 1-(ethylpropyl)-6-(1-methylpyrazol-4-yl)imidazo[4,5-b]pyrazin-2-ol | 15 µM | –
19 | C[C@@H](CN1CCOCC1)n1c(O)nc2ncc(Br)nc21 [(S)-6-bromo-1-(1-morpholinopropan-2-yl)-1H-imidazo[4,5-b]pyrazin-2-ol] | >49 µM | –
20 | C/C=C/c1cnc2nc(O)n(C(CC)CC)c2n1 [(E)-1-(pentan-3-yl)-6-(prop-1-enyl)-1H-imidazo[4,5-b]pyrazin-2-ol] | 0.4 µM | –

Row | Compound | SKM MF AC1.4 | also measured
21 | CC[C@@H](CN1CCOCC1)n1c(O)nc2ncc(Br)nc21 [(S)-6-bromo-1-(1-morpholinobutan-2-yl)-1H-imidazo[4,5-b]pyrazin-2-ol] | >49 µM | –
22 | C/C=C\c1cnc2nc(O)n(C(C)C)c2n1 [(Z)-1-isopropyl-6-(prop-1-enyl)-1H-imidazo[4,5-b]pyrazin-2-ol] | 4.6 µM | –
23 | CCC(COC)n1c(O)nc2ncc(Br)nc21 (stereo not drawn) [6-bromo-1-(1-methoxybutan-2-yl)-1H-imidazo[4,5-b]pyrazin-2-ol] | 4.9 µM | –
24 | CSc1cnc2nc(O)n([C@H](C)c3ccccc3)c2n1 [(R)-6-(methylthio)-1-(1-phenylethyl)-1H-imidazo[4,5-b]pyrazin-2-ol] | 2.9 µM | –
25 | CCc1cnc2nc(O)n([C@@H](C)c3ccccc3)c2n1 [(S)-1-(1-phenylethyl)-6-ethyl-1H-imidazo[4,5-b]pyrazin-2-ol] | 17.4 µM | –
26 | CC[C@@H](C)n1c(O)nc2ncc(Br)nc21 [(R)-6-bromo-1-sec-butyl-1H-imidazo[4,5-b]pyrazin-2-ol] | 1.5 µM | –
27 | C[C@H](CN1CCOCC1)n1c(O)nc2ncc(Br)nc21 [(R)-6-bromo-1-(1-morpholinopropan-2-yl)-1H-imidazo[4,5-b]pyrazin-2-ol] | 5.2^‡ μM | SKM MF AC1.4 (listed as 1-((1R)-1-methyl-2-morpholin-4-ylethyl)-6-bromoimidazo[4,5-b]pyrazin-2-ol): 5.19 µM; SKM MF AC1.4 (listed as (R)-6-bromo-1-(1-morpholinopropan-2-yl)-1H-imidazo[4,5-b]pyrazin-2(3H)-one): 5.2^‡ μM
28 | C/C=C\c1cnc2nc(O)n([C@@H](C)c3ccccc3)c2n1 [(S,Z)-1-(1-phenylethyl)-6-(prop-1-enyl)-1H-imidazo[4,5-b]pyrazin-2-ol] | 1.0 µM | –
29 | C[C@@H](c1ccccc1)n1c(O)nc2ncc(Br)nc21 [(S)-6-bromo-1-(1-phenylethyl)-1H-imidazo[4,5-b]pyrazin-2-ol] | 0.45 µM | –
30 | CC[C@H](CN1CCOCC1)n1c(O)nc2ncc(Br)nc21 [(R)-6-bromo-1-(1-morpholinobutan-2-yl)-1H-imidazo[4,5-b]pyrazin-2-ol] | 0.3 µM | –
31 | 1-(ethylpropyl)-6-{2-[1-(ethylpropyl)-2-hydroxyimidazo[4,5-e]pyrazin-6-yl]ethynyl}imidazo[4,5-b]pyrazin-2-ol | 19.32 µM | –
32 | CC(C)(CN1CCOCC1)n1c(O)nc2ncc(Br)nc21 [6-bromo-1-(2-methyl-1-morpholinopropan-2-yl)-1H-imidazo[4,5-b]pyrazin-2-ol] | 16.4^‡ μM | SKM MF AC1.4 (listed as 1-(1,1-dimethyl-2-morpholin-4-ylethyl)-6-bromoimidazo[4,5-b]pyrazin-2-ol): 19.11 µM; SKM MF AC1.4 (listed as 6-bromo-1-(2-methyl-1-morpholinopropan-2-yl)-1H-imidazo[4,5-b]pyrazin-2(3H)-one): 16.4^‡ μM
33 | CSc1cnc2nc(O)n(C3CCCCC3)c2n1 [1-cyclohexyl-6-(methylthio)-1H-imidazo[4,5-b]pyrazin-2-ol] | 13.9 µM | –
34 | C=Cc1cnc2nc(O)n(C(CC)CC)c2n1 [1-(ethylpropyl)-6-vinylimidazo[4,5-b]pyrazin-2-ol] | 2.3 µM | –
35 | CSc1cnc2nc(O)n(Cc3ccccc3)c2n1 [1-benzyl-6-(methylthio)-1H-imidazo[4,5-b]pyrazin-2-ol] | 22.6 µM | –
36 | CCC(CN1CCN(S(C)(=O)=O)CC1)n1c(O)nc2ncc(Br)nc21 (stereo not drawn) [6-bromo-1-(1-(4-(methylsulfonyl)piperazin-1-yl)butan-2-yl)-1H-imidazo[4,5-b]pyrazin-2-ol] | 3.2^† μM | –
37 | CSc1cnc2nc(O)n(C(C)C)c2n1 [1-isopropyl-6-(methylthio)-1H-imidazo[4,5-b]pyrazin-2-ol] | 6.7 µM | –
38 | CC(C)(C)n1c(O)nc2ncc(Br)nc21 [6-bromo-1-tert-butyl-1H-imidazo[4,5-b]pyrazin-2-ol] | 0.8 µM | –
39 | CCC(CC)n1c(O)nc2ncc(C#N)nc21 [2-hydroxy-1-(pentan-3-yl)-1H-imidazo[4,5-b]pyrazine-6-carbonitrile] | 36.4 µM | –
